The test system of one assay is NCIH460. The assay is described as follows: Anti-cancer screen (MTT), NCIH460. The format is cell-based. To be noted: Homo sapiens, NCI-H460, 48 hours with compound, tested at 0.01-100 µM. A digest of the protocol: (§1)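 MTT read-out at 570 nm after 48 h compound exposure (five concentrations, 0.01–100 µM, triplicate). Percent growth calculated against untreated control and a T0 plate read at time of compound addition, giving GI50, TGI and LC50.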

The next assay has as its system HCT116. The assay can be described thus: Anti-cancer screen (MTT), HCT116. To be noted: Homo sapiens, HCT-116, 48 hours with compound, tested at 0.01-100 µM. The format is cell-based. An outline of the steps:
as §1

The next assay has as its system MDAMB-231/U 251. The assay is described as follows: Anti-cancer screen (MTT), MDAMB-231/U 251. To be noted: for CC50: 48 h, read-out: MDAMB-231/U 251 LC50; for GI50 / IC (TGI): 48 hours with compound, MTT, tested at 0.01-100 µM. The format is cell-based. A digest of the protocol: as §1
For assay [1], the system named is NCIH460, HCT116, MDAMB-231/U 251. The assay is described as follows: Anti-cancer screen, mean GI50 over the cell lines. The format is cell-based. To be noted: in µM. A digest of the protocol:
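Growth was scored by MTT absorbance at 570 nm relative to control wells and a pre-treatment T0 reading. Compounds were tested at five final concentrations (0.01–100 µM, triplicate) for 48 h on NCIH460, HCT116 and U251 cells, each plated at 5000 cells/well 24 h before dosing.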

The test system of the next assay is HDAC. The assay is described as follows: HDAC inhibition. The format is biochemical. To be noted: for HDAC Inhibition 10 μM: compound at 10 μM; for HDAC Inhibition 1 μM: compound at 1 μM.

The record followed here is patent US20100152188A1, “Novel Heterocyclic Compounds” (priority 2005, published 2010).

Molecules are shown by their SMILES.

With `O=C(Nc1nc(CC(=O)N2CCCCC2)cs1)OCc1cccnc1` [Example 12, Pyridin-3-ylmethyl[4-(2-oxo-2-piperidin-1-ylethyl)-1,3-thiazol-2-yl]carbamate], in the assay with NCIH460, the GI50 – broadly, the concentration that inhibits growth by half – was determined as 50 µM; the IC (TGI) turned out to be 100 µM; the LC50 (commonly the concentration lethal to half of the exposed cells or organisms) was more than 100 µM. In addition, in the assay on HCT116, the GI50 was more than 100 µM, the IC (TGI) was more than 100 µM and the LC50 (concentration giving 50% net cell kill relative to T0) is more than 100 µM. Also, in the assay on MDAMB-231/U 251, the CC50 is more than 100 µM, the GI50 is 50 µM and the IC (TGI) was more than 100 µM. In assay [1], the “Mean GI50” value is given as 50. In addition, in the assay on HDAC, the “HDAC Inhibition 10 μM” value is recorded as 10.83.

For the molecule `O=C(Cc1csc(NC(=O)OCc2cccnc2)n1)NC1CCN(Cc2ccccc2)CC1` [Example 17, Pyridin-3-ylmethyl(4-{2-[(1-benzylpiperidin-4-yl)amino]-2-oxoethyl}-1,3-thiazol-2-yl)carbamate], in the assay with NCIH460, the GI50 was determined as 80 µM, the IC (TGI) was more than 100 µM and the LC50 was more than 100 µM. In the assay on HCT116, the GI50 is 82 µM, the IC (TGI) is more than 100 µM and the LC50 (concentration giving 50% net cell kill relative to T0) was more than 100 µM. In the assay on MDAMB-231/U 251, the CC50 was more than 100 µM, the GI50 is 2.5 µM and the IC (TGI) amounted to 50 µM. For the same molecule, the “Mean GI50” value in assay [1] is 54.8. Further, the “HDAC Inhibition 10 μM” value in the assay on HDAC was 3.61.

As to `Nc1ccccc1NC(=O)Cc1csc(NC(=O)OCc2cccnc2)n1` [Example 18, Pyridin-3-ylmethyl(4-{2-[(2-aminophenyl)amino]-2-oxoethyl}-1,3-thiazol-2-yl)carbamate], in the assay on NCIH460, the GI50 was determined as 100 µM, the IC (TGI) was more than 100 µM and the LC50 is more than 100 µM. Further, in the assay on HCT116, the GI50 was more than 100 µM, the IC (TGI) was more than 100 µM and the LC50 (concentration giving 50% net cell kill relative to T0) was more than 100 µM. In the assay on MDAMB-231/U 251, the CC50 was more than 100 µM, the GI50 amounted to 12 µM and the IC (TGI) is more than 100 µM. Besides, the “Mean GI50” value in assay [1] is more than 100. Moreover, in the assay with HDAC, the “HDAC Inhibition 1 μM” value stood at 2.19 and the “HDAC Inhibition 10 μM” value was determined as 7.99.

Turning to `O=C(Cc1csc(NC(=O)OCc2cccnc2)n1)Nc1ccccc1O` [Example 19, Pyridin-3-ylmethyl(4-{2-[(2-hydroxyphenyl)amino]-2-oxoethyl}-1,3-thiazol-2-yl)carbamate], in the assay on NCIH460, the GI50 stood at 1 µM, the IC (TGI) is 60 µM and the LC50 is more than 100 µM. In the assay on HCT116, the GI50 came to 34 µM, the IC (TGI) was more than 100 µM and the LC50 (concentration giving 50% net cell kill relative to T0) was more than 100 µM. Also, in the assay on MDAMB-231/U 251, the CC50 was more than 100 µM, the GI50 turned out to be 7.6 µM and the IC (TGI) is 80 µM. Further, in assay [1], the “Mean GI50” value stood at 14.2. Moreover, in the assay with HDAC, the “HDAC Inhibition 10 μM” value came to 0.50.

With `Nc1ccccc1NC(=O)Cc1csc(NC(=O)OCc2nc3ccccc3s2)n1` [Example 21, 1,3-Benzothiazol-2-ylmethyl(4-{2-[(2-aminophenyl)amino]-2-oxoethyl}-1,3-thiazol-2-yl)carbamate], in the assay on NCIH460, the GI50 came out at 15 µM, the IC (TGI) is more than 100 µM and the LC50 was more than 100 µM. In addition, in the assay on HCT116, the GI50 was determined as 8 µM, the IC (TGI) is more than 100 µM and the LC50 (concentration giving 50% net cell kill relative to T0) is more than 100 µM. Moreover, in the assay with MDAMB-231/U 251, the CC50 is more than 100 µM, the GI50 worked out at 4 µM and the IC (TGI) is 9 µM. Also, the “Mean GI50” value in assay [1] worked out at 9. Besides, in the assay on HDAC, the “HDAC Inhibition 1 μM” value is recorded as 4.41 and the “HDAC Inhibition 10 μM” value is reported as 0.57.
